Experimental data: US7323469B2, “7H-pyrrolo[2,3-d]pyrimidine derivatives” (Novartis AG, priority 2001, dated 2008)

Structure (SMILES) | melting point [°C]
Clc1cccc(CNc2ncnc3[nH]c(-c4ccc(CN5CCCC5)cc4)cc23)c1 [Example 88, (3-Chloro-benzyl)-[6-(4-pyrrolidin-1-ylmethyl-phenyl)-7H-pyrrolo[2,3-d]pyrimidin-4-yl]-amine] | 222 to 225
C[C@@H](Nc1ncnc2[nH]c(-c3cccc(CN4CCCC4)c3)cc12)c1ccccc1 [Example 28, ((R)-1-Phenyl-ethyl)-[6-(3-pyrrolidin-1-ylmethyl-phenyl)-7H-pyrrolo[2,3-d]pyrimidin-4-yl]-amine] | 90 to 92
C[C@@H](Nc1ncnc2[nH]c(-c3ccc(CN4CCNCC4)cc3)cc12)c1ccccc1 [Example 145, ((R)-1-Phenyl-ethyl)-[6-(4-piperazin-1-ylmethyl-phenyl)-7H-pyrrolo[2,3-d]pyrimidin-4-yl]-amine] | 240 to 242
CCN1CCN(Cc2ccc(-c3cc4c(NCc5ccccc5Cl)ncnc4[nH]3)cc2)CC1 [Example 91, (2-Chloro-benzyl)-{6-[4-(4-ethyl-piperazin-1-ylmethyl)-phenyl]-7H-pyrrolo[2,3-d]pyrimidin-4-yl}-amine] | 255 to 256
COc1cccc(CNc2ncnc3[nH]c(-c4ccc(CN5CCCC5)cc4)cc23)c1 [Example 106, (3-Methoxy-benzyl)-[6-(4-pyrrolidin-1-ylmethyl-phenyl)-7H-pyrrolo[2,3-d]pyrimidin-4-yl]-amine] | 220 to 222
COc1cccc(CNc2ncnc3[nH]c(-c4ccc(CN5CCN(C)CC5)cc4)cc23)c1 [Example 107b, (3-Methoxy-benzyl)-{6-[4-(4-methyl-piperazin-1-ylmethyl)-phenyl]-7H-pyrrolo[2,3-d]pyrimidin-4-yl}-amine] | 225 to 227
CN1CCN(Cc2ccc(-c3cc4c(NCc5cc(Cl)ccc5Cl)ncnc4[nH]3)cc2)CC1 [Example 102, (2,5-Dichloro-benzyl)-{6-[4-(4-methyl-piperazin-1-ylmethyl)-phenyl]-7H-pyrrolo[2,3-d]pyrimidin-4-yl)-amine] | 244 to 246
COc1cccc(CNc2ncnc3[nH]c(-c4ccc(CN5CCCCC5)cc4)cc23)c1 [Example 107, (3-Methoxy-benzyl)-[6-(4-piperidin-1-ylmethyl-phenyl)-7H-pyrrolo[2,3-d]pyrimidin-4-yl]-amine] | 227 to 229
CN1CCN(Cc2ccc(-c3cc4c(NCc5cccc(Cl)c5)ncnc4[nH]3)cc2)CC1 [Example 89, (3-Chloro-benzyl)-{6-[4-(4-methyl-piperazin-1-ylmethyl)-phenyl]-7H-pyrrolo[2,3-d]pyrimidin-4-yl}-amine] | 235 to 237
Cc1cccc(CNc2ncnc3[nH]c(-c4ccc(CN5CCCC5)cc4)cc23)c1 [Example 107h, (3-Methyl-benzyl)-[6-(4-pyrrolidin-1-ylmethyl-phenyl)-7H-pyrrolo[2,3-d]pyrimidin-4-yl]-amine] | 241 to 243
CCN(CC)CCNCc1ccc(-c2cc3c(N[C@H](C)c4ccccc4)ncnc3[nH]2)cc1 [Example 16c, N,N-Diethyl-N′-{4-[4-((R)-1-phenyl-ethyl-amino)-7H-pyrrolo[2,3-d]pyrimidin-6-yl]-benzyl}-ethane-1,2-diamine] | 145 to 150

Second part, the molecule after the results:

melting point [°C] | Structure (SMILES)
194 to 196 | C[C@@H](Nc1ncnc2[nH]c(-c3ccc(CNC(=O)CN4CCCCC4)cc3)cc12)c1ccccc1 [Example 40, N-{4-[4-((R)-1-Phenyl-ethylamino)-7H-pyrrolo[2,3-d]pyrimidin-6-yl]-benzyl}-2-piperidin-1-yl-acetamide]
233 to 235 | Fc1ccc(Nc2ncnc3[nH]c(-c4cccc(CN5CCCCC5)c4)cc23)cc1Cl [Example 38, (3-Chloro-4-fluoro-phenyl)-[6-(3-piperidin-1-ylmethyl-phenyl)-7H-pyrrolo[2,3-d]pyrimidin-4-yl]-amine]
262 to 264 | Clc1ccccc1CNc1ncnc2[nH]c(-c3ccc(CN4CCCCC4)cc3)cc12 [Example 92, (2-Chloro-benzyl)-[6-(4-piperidin-1-ylmethyl-phenyl)-7H-pyrrolo[2,3-d]pyrimidin-4-yl]-amine]
272 to 274 | c1ccc(COc2ccc(Nc3ncnc4[nH]c(-c5ccc(CN6CCOCC6)cc5)cc34)cc2)cc1 [Example 20, (4-Benzyloxy-phenyl)-[6-(4-morpholin-4-ylmethyl-phenyl)-7H-pyrrolo[2,3-d]pyrimidin-4-yl]-amine]
255 to 257 | CCN(CC)Cc1ccc(-c2cc3c(NCc4cc(Cl)ccc4Cl)ncnc3[nH]2)cc1 [Example 101, (2,5-Dichloro-benzyl)-[6-(4-diethylaminomethyl-phenyl)-7H-pyrrolo[2,3-d]pyrimidin-4-yl]-amine]
272 to 273 | CN(C)CC(=O)NCc1cccc(-c2cc3c(Nc4ccc(F)c(Cl)c4)ncnc3[nH]2)c1 [Example 64, N-{3-[4-(3-Chloro-4-fluoro-phenylamino)-7H-pyrrolo[2,3-d]pyrimidin-6-yl]-benzyl}-2-dimethylamino-acetamide]
340 to 342 | O=C(NCc1ccc(-c2cc3c(Nc4ccc(F)c(Cl)c4)ncnc3[nH]2)cc1)c1ccccn1 [Example 59, Pyridine-2-carboxylic acid 4-[4-(3-chloro-4-fluoro-phenylamino)-7H-pyrrolo[2,3-d]pyrimidin-6-yl]-benzylamide]
214 | CN1CCN(CC(=O)NCc2cccc(-c3cc4c(Nc5ccc(F)c(Cl)c5)ncnc4[nH]3)c2)CC1 [Example 65, N-{3-[4-(3-Chloro-4-fluoro-phenylamino)-7H-pyrrolo[2,3-d]pyrimidin-6-yl]-benzyl}-2-(4-methyl-piperazin-1-yl)-acetamide]
221 to 223 | CN1CCN(Cc2cccc(-c3cc4c(Nc5ccc(F)c(Cl)c5)ncnc4[nH]3)c2)CC1 [Example 37, (3-Chloro-4-fluoro-phenyl)-{6-[3-(4-methyl-piperazin-1-ylmethyl)-phenyl]-7H-pyrrolo[2,3-d]pyrimidin-4-yl}-amine]
246 to 248 | O=C(CN1CCCCC1)NCc1ccc(-c2cc3c(Nc4ccc(OCc5ccccc5)cc4)ncnc3[nH]2)cc1 [Example 53, N-{4-[4-(4-Benzyloxy-phenylamino)-7H-pyrrolo[2,3-d]pyrimidin-6-yl]-benzyl}-2-piperidin-1-yl-acetamide]
261 to 263 | CC1CN(Cc2ccc(-c3cc4c(Nc5ccc(F)c(Cl)c5)ncnc4[nH]3)cc2)CC(C)N1 (stereo not drawn) [Example 8, (3-Chloro-4-fluoro-phenyl)-{6-[4-(3,5-dimethyl-piperazin-1-ylmethyl)-phenyl]-7H-pyrrolo[2,3-d]pyrimidin-4-yl}-amine]
266 to 268 | CC(C)NCc1ccc(-c2cc3c(N[C@H](C)c4ccccc4)ncnc3[nH]2)cc1 [Example 16e, {6-[4-(isopropylamino-methyl)-phenyl]-7H-pyrrolo[2,3-d]pyrimidin-4-yl}-((R)-1-phenyl-ethyl)-amine]
229 to 232 | O=C(CN1CCCCC1)NCc1ccc(-c2cc3c(Nc4ccc(F)c(Cl)c4)ncnc3[nH]2)cc1 [Example 49, N-{4-[4-(3-Chloro-4-fluoro-phenylamino)-7H-pyrrolo[2,3-d]pyrimidin-6-yl]-benzyl}-2-piperidin-1-yl-acetamide]
